Earlier results, collected in patent US7923560B2, “Delivery of immune response modifier compounds” (3M Innovative Properties Company, priority 2003, dated 2011).

Legend:
[1] = target: T1, TLR 8 (Homo sapiens, UniProt Q9NR97)
T1 construct: expressed in transfected cells
T1 sequence (Q9NR97 27-1041): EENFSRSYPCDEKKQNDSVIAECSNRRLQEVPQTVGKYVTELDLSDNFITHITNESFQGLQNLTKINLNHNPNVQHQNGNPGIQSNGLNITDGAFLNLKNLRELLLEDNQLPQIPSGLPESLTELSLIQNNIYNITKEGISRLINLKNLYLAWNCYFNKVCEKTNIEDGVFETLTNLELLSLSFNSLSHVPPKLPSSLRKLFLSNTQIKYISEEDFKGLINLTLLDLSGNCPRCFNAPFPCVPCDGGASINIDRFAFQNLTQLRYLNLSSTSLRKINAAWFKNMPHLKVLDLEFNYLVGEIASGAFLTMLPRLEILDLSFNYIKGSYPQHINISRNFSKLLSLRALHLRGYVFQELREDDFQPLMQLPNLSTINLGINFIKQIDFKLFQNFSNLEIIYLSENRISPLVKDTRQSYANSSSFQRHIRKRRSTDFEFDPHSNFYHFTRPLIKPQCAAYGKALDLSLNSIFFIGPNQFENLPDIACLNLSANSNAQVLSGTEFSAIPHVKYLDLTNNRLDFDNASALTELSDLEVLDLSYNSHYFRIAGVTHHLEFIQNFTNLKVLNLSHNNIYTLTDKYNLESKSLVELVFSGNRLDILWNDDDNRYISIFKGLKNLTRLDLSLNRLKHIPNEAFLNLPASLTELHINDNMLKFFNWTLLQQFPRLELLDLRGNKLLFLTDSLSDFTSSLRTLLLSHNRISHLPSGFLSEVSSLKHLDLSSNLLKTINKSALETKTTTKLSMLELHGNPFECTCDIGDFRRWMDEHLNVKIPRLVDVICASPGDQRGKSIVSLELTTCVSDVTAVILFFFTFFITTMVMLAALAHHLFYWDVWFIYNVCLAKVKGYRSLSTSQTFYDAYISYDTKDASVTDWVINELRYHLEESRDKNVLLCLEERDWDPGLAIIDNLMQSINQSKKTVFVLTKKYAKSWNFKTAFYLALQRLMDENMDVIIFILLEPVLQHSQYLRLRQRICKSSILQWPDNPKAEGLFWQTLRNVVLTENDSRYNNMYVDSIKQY

[2] = target: T2, TLR 7 (Homo sapiens, UniProt Q9NYK1)
T2 construct: expressed in transfected cells
T2 sequence (Q9NYK1 27-1049): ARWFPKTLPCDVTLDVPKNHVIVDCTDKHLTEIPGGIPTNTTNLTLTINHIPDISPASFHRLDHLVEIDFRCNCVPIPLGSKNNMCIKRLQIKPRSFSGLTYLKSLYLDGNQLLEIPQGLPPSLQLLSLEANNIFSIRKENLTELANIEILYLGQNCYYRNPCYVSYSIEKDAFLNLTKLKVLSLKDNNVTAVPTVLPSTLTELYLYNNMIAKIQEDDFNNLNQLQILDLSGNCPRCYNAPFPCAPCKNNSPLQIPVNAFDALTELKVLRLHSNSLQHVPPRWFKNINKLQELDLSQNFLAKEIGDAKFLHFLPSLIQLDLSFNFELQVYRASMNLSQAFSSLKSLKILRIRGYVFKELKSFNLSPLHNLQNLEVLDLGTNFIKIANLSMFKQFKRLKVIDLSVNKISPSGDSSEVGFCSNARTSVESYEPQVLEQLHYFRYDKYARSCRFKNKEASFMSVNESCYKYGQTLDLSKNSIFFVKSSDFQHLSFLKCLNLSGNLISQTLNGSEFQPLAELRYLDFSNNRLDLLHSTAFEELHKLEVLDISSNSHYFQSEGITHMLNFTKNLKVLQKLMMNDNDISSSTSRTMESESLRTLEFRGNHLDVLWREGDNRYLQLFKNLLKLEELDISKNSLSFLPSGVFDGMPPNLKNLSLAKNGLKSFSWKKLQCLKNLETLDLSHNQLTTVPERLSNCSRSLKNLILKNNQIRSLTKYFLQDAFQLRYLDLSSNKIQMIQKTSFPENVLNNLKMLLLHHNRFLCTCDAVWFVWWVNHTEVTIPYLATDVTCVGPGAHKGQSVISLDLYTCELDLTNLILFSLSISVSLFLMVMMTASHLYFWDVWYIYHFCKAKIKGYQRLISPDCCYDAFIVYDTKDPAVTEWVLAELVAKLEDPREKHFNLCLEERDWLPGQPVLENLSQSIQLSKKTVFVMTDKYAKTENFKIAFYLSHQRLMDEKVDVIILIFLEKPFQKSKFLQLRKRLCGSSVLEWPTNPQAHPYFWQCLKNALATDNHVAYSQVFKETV

[3] = delivered systemically, compared to imiquimod

Structure (SMILES) | TLR 8 agonist activity [1] | TLR 7 agonist activity [2] | CNS effect [3]
CCOCc1nc2c(N)nc3ccccc3c2n1CC(C)(C)O [Resiquimod, 4-amino-2-ethoxymethyl-α,α-dimethyl-1H-imidazo[4,5-c]quinoline-1-ethanol] | combination TLR 7 and TLR 8 agonist | combination TLR 7 and TLR 8 agonist | –
CCOCc1nc2c(N)nc3c(c2n1CC(C)(C)O)CCCC3 [4-amino-2-(ethoxymethyl)-α,α-dimethyl-6,7,8,9-tetrahydro-1H-imidazo[4,5-c]quinoline-1-ethanol] | a TLR 7 and TLR 8 agonist | a TLR 7 and TLR 8 agonist | –
CC(C)(O)Cn1cnc2c(N)nc3ccccc3c21 [4-amino-α,α-dimethyl-1H-imidazo[4,5-c]quinoline-1-ethanol] | not a substantial TLR 8 agonist | predominantly a TLR 7 agonist | much lower CNS effect
